Experimental data from ChEMBL document CHEMBL1201862, “PubChem BioAssay data set” (2004).
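1) Cells in 96-well plates. 2) Compound, 48 h, 5 concentrations. 3) Linear interpolation between surrounding doses. 4) Unreached endpoint = highest concentration. GI50 = concentration required for 50% inhibition of growth.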 Active and inactive are the calls of the source. Rule as the data show it: active = GI50 up to about 1.1 µM and inactive = higher.

Experiments:
Experiment in all cases: NCI tumour cell line growth inhibition, 48 h
SW-620 = test system: SW-620
HOP-62 = test system: HOP-62
HT-29 = test system: HT-29
SN12C = test system: SN12C
HCT-116 = test system: HCT-116
ACHN = test system: ACHN
SF-539 = test system: SF-539
SK-MEL-2 = test system: SK-MEL-2
SF-295 = test system: SF-295
M14 = test system: M14
A498 = test system: A498
MOLT-4 = test system: MOLT-4
K562 = test system: K562
IGROV-1 = test system: IGROV-1
UACC-62 = test system: UACC-62
OVCAR-3 = test system: OVCAR-3

Measured: GI50

CC1=C(O)/C(=C/C(C)CCC/C(C)=C/C=C/C(C)CCCc2ccoc2)OC1=O (stereo not given)
inactive: SW-620 33.3 µM | HOP-62 18.5 µM | HT-29 45.4 µM | SN12C 35.3 µM | HCT-116 > 10 µM | ACHN 19.2 µM | SF-539 30.3 µM | SK-MEL-2 25.5 µM | SF-295 31.9 µM | M14 36 µM

CN(C)c1n/c(=N/c2ccc3c(c2)OCO3)ss1
inactive: A498 43.9 µM | SW-620 74 µM | HOP-62 > 100 µM | MOLT-4 22.4 µM | HT-29 38.5 µM | K562 34.8 µM | SN12C 73.6 µM | IGROV-1 > 100 µM | HCT-116 49 µM | ACHN 84.9 µM | SF-539 67.6 µM | SK-MEL-2 > 100 µM | UACC-62 58.3 µM | SF-295 > 100 µM | M14 > 100 µM

CC(=O)OC1CC2C(C)(C)OC(=O)CC(OC(C)=O)[C@]2(C)C2CCC3(C)C(=CCC3[C@H]3COC(=O)C3)[C@]12C (stereo not given in full)
inactive: A498 96.4 µM | SW-620 > 100 µM | HOP-62 > 100 µM | MOLT-4 24.5 µM | HT-29 60.5 µM | K562 43.9 µM | SN12C > 100 µM | IGROV-1 > 100 µM | HCT-116 61.5 µM | ACHN > 100 µM | SF-539 > 100 µM | SK-MEL-2 72.3 µM | UACC-62 97.7 µM | OVCAR-3 94 µM | SF-295 41.5 µM | M14 32.7 µM

O/N=C1/C(=C/c2ccc3c(c2)OCO3)CCCC1C(NO)c1ccc2c(c1)OCO2 (stereo not given)
inactive: A498 26.5 µM | SW-620 30.8 µM | HOP-62 21.1 µM | MOLT-4 16.9 µM | HT-29 16.7 µM | K562 24.9 µM | SN12C 21.3 µM | IGROV-1 28.2 µM | HCT-116 17.3 µM | ACHN 31.6 µM | SF-539 18 µM | SK-MEL-2 21.4 µM | UACC-62 19 µM | OVCAR-3 14.6 µM | M14 19.5 µM

Cc1ccc(/N=N/c2c(-c3ccccc3)nn(C(=O)CC(=O)Nc3ccc(Cl)cc3)c2-c2ccccc2)cc1
inactive: A498 31.8 µM | SW-620 90.8 µM | HOP-62 33.8 µM | MOLT-4 21.3 µM | HT-29 65.3 µM | K562 42.1 µM | SN12C > 100 µM | IGROV-1 > 100 µM | HCT-116 61.5 µM | ACHN 79.6 µM | SF-539 58.9 µM | SK-MEL-2 81.8 µM | UACC-62 70.5 µM | OVCAR-3 26.2 µM | SF-295 24.4 µM | M14 65.2 µM

CC(=O)C(CN(C)Cc1ccccc1)C(c1ccccc1)c1c(O)c2ccccc2oc1=O (stereo not given)
inactive: A498 > 100 µM | SW-620 > 100 µM | HOP-62 > 100 µM | MOLT-4 > 100 µM | HT-29 > 100 µM | K562 > 100 µM | SN12C > 100 µM | IGROV-1 > 100 µM | HCT-116 > 100 µM | ACHN > 100 µM | SF-539 > 100 µM | SK-MEL-2 > 100 µM | UACC-62 > 100 µM | SF-295 > 100 µM | M14 > 100 µM

CCCCCCCCCCCCCCC(C)CCC(=O)O (stereo not given)
inactive: A498 > 100 µM | SW-620 > 100 µM | HOP-62 > 100 µM | HT-29 34.5 µM | SN12C > 100 µM | IGROV-1 > 100 µM | HCT-116 36.8 µM | ACHN > 100 µM | SF-539 48.9 µM | SK-MEL-2 60 µM | UACC-62 78.9 µM | OVCAR-3 68.7 µM | SF-295 > 100 µM

CSc1nc(NC2OCC(OC(C)=O)C(OC(C)=O)C2OC(C)=O)c2c(n1)OCC2=O (stereo not given)
inactive: A498 > 100 µM | SW-620 > 100 µM | HOP-62 > 100 µM | MOLT-4 > 100 µM | HT-29 > 100 µM | K562 > 100 µM | SN12C > 100 µM | IGROV-1 > 100 µM | HCT-116 > 100 µM | ACHN > 100 µM | SF-539 > 100 µM | SK-MEL-2 > 100 µM | UACC-62 > 100 µM | OVCAR-3 > 100 µM | SF-295 > 100 µM | M14 > 100 µM

COC(=O)[C@H](C)[C@H]1CC[C@@](C)([C@H]2CC3C(C)(C)[C@H]4CCC(C)=C[C@H]4C[C@@]3(C)O2)OO1 (stereo not given in full)
inactive: A498 8.71 µM | SW-620 8.83 µM | HOP-62 19.3 µM | MOLT-4 7.13 µM | HT-29 13.5 µM | K562 6.21 µM | SN12C 11.1 µM | IGROV-1 5.69 µM | HCT-116 10.5 µM | ACHN 10.4 µM | SF-539 15 µM | SK-MEL-2 15.4 µM | UACC-62 13.6 µM | OVCAR-3 13.2 µM | SF-295 14.7 µM | M14 12.6 µM

C[N+](C)(C)CC1CCCC(C[N+](C)(C)C)C1=NO (stereo not given)
inactive: SW-620 > 100 µM | MOLT-4 > 100 µM | HT-29 > 100 µM | K562 > 100 µM | SN12C > 100 µM | IGROV-1 > 100 µM | HCT-116 > 100 µM | ACHN > 100 µM | SF-539 > 100 µM | SK-MEL-2 > 100 µM | UACC-62 > 100 µM | OVCAR-3 > 100 µM | SF-295 > 100 µM | M14 > 100 µM

Clc1cc(Cl)c2n[se]nc2c1
inactive: A498 > 100 µM | SW-620 > 100 µM | HOP-62 > 100 µM | MOLT-4 > 100 µM | HT-29 > 100 µM | K562 > 100 µM | SN12C > 100 µM | IGROV-1 > 100 µM | HCT-116 > 100 µM | ACHN > 100 µM | SF-539 > 100 µM | SK-MEL-2 94 µM | UACC-62 > 100 µM | SF-295 > 100 µM | M14 > 100 µM

CCN(CC)[C@@H]1c2cc3c(cc2C(c2cc(OC)c(O)c(OC)c2)C2C(=O)CO[C@@H]21)OCO3 (stereo not given in full)
inactive: A498 > 100 µM | SW-620 > 100 µM | HOP-62 > 100 µM | MOLT-4 > 100 µM | HT-29 > 100 µM | K562 > 100 µM | SN12C > 100 µM | IGROV-1 > 100 µM | HCT-116 > 100 µM | ACHN > 100 µM | SF-539 > 100 µM | SK-MEL-2 > 100 µM | UACC-62 > 100 µM | SF-295 > 100 µM | M14 > 100 µM

CC1c2[nH]c3ccccc3c2CCN1O (stereo not given)
inactive: A498 > 100 µM | SW-620 > 100 µM | MOLT-4 > 100 µM | HT-29 > 100 µM | K562 > 100 µM | SN12C > 100 µM | IGROV-1 > 100 µM | HCT-116 > 100 µM | ACHN > 100 µM | SF-539 > 100 µM | SK-MEL-2 > 100 µM | UACC-62 > 100 µM | OVCAR-3 > 100 µM | SF-295 > 100 µM | M14 > 100 µM

O=C(O)CN(c1ccccc1)S(=O)(=O)c1cccc([N+](=O)[O-])c1
inactive: A498 > 100 µM | SW-620 > 100 µM | MOLT-4 > 100 µM | HT-29 > 100 µM | K562 > 100 µM | SN12C > 100 µM | IGROV-1 > 100 µM | ACHN > 100 µM | SF-539 > 100 µM | SK-MEL-2 > 100 µM | UACC-62 > 100 µM | OVCAR-3 > 100 µM | SF-295 > 100 µM | M14 > 100 µM

CCOc1ccc(/N=C\c2ccc3cc(C)ccc3n2)cc1
inactive: A498 72.3 µM | SW-620 58.9 µM | HOP-62 > 100 µM | MOLT-4 27.3 µM | HT-29 34.6 µM | K562 25.4 µM | SN12C > 100 µM | IGROV-1 77.6 µM | ACHN 35.8 µM | SF-539 40.3 µM | SK-MEL-2 45.1 µM | UACC-62 37.9 µM | OVCAR-3 33.1 µM | SF-295 68.5 µM | M14 49.1 µM

CC1C[C@H](C)CC(C(O)CC2CC(=O)N(Cc3ccccc3)C(=O)C2)C1O (stereo not given in full)
inactive: A498 > 100 µM | SW-620 > 100 µM | HOP-62 > 100 µM | MOLT-4 > 100 µM | HT-29 > 100 µM | K562 > 100 µM | SN12C > 100 µM | IGROV-1 > 100 µM | HCT-116 > 100 µM | ACHN > 100 µM | SF-539 > 100 µM | UACC-62 > 100 µM | OVCAR-3 > 100 µM | SF-295 > 100 µM | M14 > 100 µM

COC(=O)C1Cc2c(n(C)c3ccccc23)C(c2ccccc2)N1 (stereo not given)
inactive: A498 48.4 µM | SW-620 > 100 µM | MOLT-4 29.6 µM | HT-29 18.9 µM | K562 47.6 µM | SN12C > 100 µM | IGROV-1 45.8 µM | HCT-116 34.4 µM | ACHN 39.3 µM | SF-539 > 10 µM | SK-MEL-2 47.6 µM | UACC-62 62.8 µM | OVCAR-3 53 µM | SF-295 > 100 µM | M14 > 100 µM

Cc1cn2c(=O)c3ncn(C4OC(CO)C(O)C4O)c3n(C)c2n1 (stereo not given)
inactive: A498 > 100 µM | SW-620 > 100 µM | MOLT-4 > 100 µM | HT-29 > 100 µM | K562 > 100 µM | SN12C > 100 µM | IGROV-1 > 100 µM | HCT-116 > 100 µM | ACHN > 100 µM | SF-539 > 100 µM | SK-MEL-2 > 100 µM | UACC-62 > 100 µM | OVCAR-3 > 100 µM | SF-295 > 100 µM | M14 > 100 µM
